This note sets out measurements from US12528793B2 (priority 2019, dated 2026).

Data set [1] has as its system M. smegmatis mc2 155. The experiment in a line: Antimycobacterial activity (growth inhibition, MIC50) against M. smegmatis. In kind it is cell-based. As to conditions: Mycolicibacterium smegmatis, MC2155, read-out: M. smeg., MIC50.
Data set [2] deals with M. tuberculosis H37Rv. The experiment in a line: Antimycobacterial activity (growth inhibition, MIC50) against Mtb. In kind it is cell-based. The settings on record: for MIC50: Mycobacterium tuberculosis, H37RV, read-out: Mtb, MIC50, [μM).
Data set [3] relates to M. smegmatis mc^2 155. The data set can be described thus: Kill kinetics against M. smegmatis mc^2 155. In kind it is cell-based. As to conditions: M. smegmatis mc^2 155, liquid culture, up to 4 days; (II) at 20-fold MIC50 (FIG. 1 legend 10×MIC50), BDQ 200×MIC50.
The subject of data set [4] is M. bovis BCG cells. The data set can be described thus: microbe, parasite or virus in culture. In kind it is cell-based. The settings on record: Mycobacterium tuberculosis variant bovis BCG, read-out: IC50 for intracellular ATP synthesis inhibition.
The subject of data set [5] is M. bovis bacillus Calmette-Guérin (BCG). The experiment in a line: microbe, parasite or virus in culture. In kind it is cell-based. As to conditions: Mycobacterium tuberculosis variant bovis BCG, read-out: MIC50 in M. bovis BCG.
Data set [6] can be described thus: Metabolic stability in mouse liver microsomes. In general terms: Liver microsomes are a subcellular fraction often used to study metabolism.
For data set [7], the system named is human embryonic stem cell (hESC) line (E3). The experiment in a line: hESC line (E3) genotoxicity and transcriptional program assays. As to conditions: racemate of (VI) 100 nM in combination with 300 nM of (II). In kind it is cell-based. An excerpt: Further, a human embryonic stem cell (hESC) line (E3) was used to examine both potential drug-induced genotoxicity and perturbations of the hESC transcriptional program that lead to hESC differentiation.

Converted amounts (≈) assume the structure as drawn.

In the case of `CCNc1cc(C)nc(Nc2ccc3[nH]c(-c4ccccc4)nc3c2)n1`, the MIC50 in data set [1] stood at 23.5 µM (≈ 8.09 µg/mL); in data set [2], 8.8 µM (≈ 3.03 µg/mL).

As to `CCNc1cc(C)nc(Nc2ccc3nc(-c4cccc(Cl)c4)[nH]c3c2)n1` [Formula (III), N^2-(2-(3-Chlorophenyl)-1H-benzo[d]imidazol-5-yl)-N^4-ethyl-6-methylpyrimidine-2,4-diamine], the MIC50 in data set [1] was found to be 14.6 µM; in data set [2], 5.2 µM.

As for `COc1nc2ccc(Br)cc2cc1[C@@H](c1ccccc1)[C@@](O)(CCN(C)C)c1cccc2ccccc12` [BDQ, Bedaquiline, reference compound], the “bactericidal activity (kill kinetics)” value in data set [3] is given as “delayed bactericidal activity”. Further, in data set [4], the IC50 stood at 11.5 nM.

Turning to `CCNc1cc(C)nc(Nc2ccc3nc(-c4ccc(Cl)cc4)[nH]c3c2)n1` [Formula (II), N^2-(2-(4-Chlorophenyl)-1H-benzo[d]imidazol-5-yl)-N^4-ethyl-6-methylpyrimidine-2,4-diamine], in data set [1], the MIC50 amounted to 9.9 µM. Also, in data set [2] (Mtb H37Rv, compared with cpd6 of WO 2018/151681 A2), the “fold improvement of MIC50” value turned out to be 10 fold. In addition, the MIC50 in data set [2] was found to be 3 µM. Also, in data set [5], the MIC50 amounted to 6.8 µM. For the same compound, the “bactericidal activity (kill kinetics)” value in data set [3] is “bactericidal”. Also, the 50% inhibitory concentration (IC50) in data set [4] is 3300 nM. Further, in data set [6], the CIint turned out to be 46.8, the CLhep was 60.5 mL/min/kg and the T1/2 is given as 29.6 min.

`CCSCCCOc1cccc(C(c2cc3cc(Br)ccc3nc2OC)C(O)(CCN(C)C)c2cc(OC)nc(OC)c2)c1OC` (racemic) [Formula (VI)]: the half-inhibitory concentration (IC50) in data set [4] came to 3.4 nM. In data set [7], the “alterations in the global transcriptional program” value was “nor induced major alterations” and the genotoxic effects entry is listed as “did not show substantial genotoxic effects”.

The IC50 is the concentration needed to halve the response being measured.
